Assay results: US6106856A (The Board of Governors for Higher Education, State of Rhode …, priority 1995, dated 2000)

Legend:
[1] = Permeation through heat-separated human epidermis (Franz-diffusion cell); format: in vitro ADME
Protocol: (§1) […] of this solution was given on heat-separated human epidermis (breast, area 4.5 cm^2) which was mounted on a Franz-diffusion cell. The cell was filled with 23 ml of a mixture of 60 parts of a 0.9% NaCl-solution and 40 parts of polyethylene glycol 400 (v/v).

[2] = cited from earlier work
[3] = Recrystallization of applied saturated drug solution during the permeation experiment; format: physicochemical; details: applied crystal-free
Protocol: as §1

Q: With `COC(=O)C1=C(C)NC(C)=C(C(=O)OC)C1c1ccccc1[N+](=O)[O-]` [Nifedipine] as the molecule, how does the Flux ([1]; 8 h column) read?
A: 0.35 μg/cm *h

Q: What about the Flux ([1]; 24 h column) of the same molecule?
A: 7.44 μg/cm *h

Q: What about the Flux ([1]; 32 h column) of the same molecule?
A: 6.13 μg/cm *h

Q: And the Flux ([1]; 48 h column)?
A: 12.29 μg/cm *h

Q: What about the “correlation of hypotensive and untoward side effects with plasma concentration” value ([2]; clinical studies) of the same molecule?
A: correlated with the plasma nifedipine concentration

Q: What about the “variation of transient, high plasma levels” value ([2]; oral administration of conventional capsules) of the same molecule?
A: may vary by tenfold

Q: What about the “interindividual variability of plasma levels” value ([2]; oral administration) of the same molecule?
A: Extraordinary interindividual variability

Q: What about the “heart rate and blood pressure effect on rapid increase of plasma concentration” value ([2]; rapid increase of plasma nifedipine concentration) of the same molecule?
A: marked increase in heart rate and little effect on blood pressure

Q: For `COCCOC(=O)C1=C(C)NC(C)=C(C(=O)OC(C)C)C1c1cccc([N+](=O)[O-])c1` (stereo not shown) [Nimodipine], which “recrystallization during the experiment” value [3] is on record?
A: recrystallization

Q: For `O=[N+]([O-])OCC(CO[N+](=O)[O-])O[N+](=O)[O-]` [nitroglycerin], which “tolerance observed in patients” value ([2]; transdermal nitroglycerin) is on record?
A: tolerance observed in patients
